We go through two compounds from patent US20200138921A1, “METHODS OF PREVENTING AND TREATING DISEASES CHARACTERIZED BY SYNAPTIC DYSFUNCTION AND NEURODEGENERATION INCLUDING ALZHEIMER'S DISEASE” (The Trustees of Columbia University in the City of New York, priority 2017, published 2020).

One data set deals with Ube3A. The experiment in a line: Western blot of Ube3A protein in cultured primary hippocampal neurons. The class given is cell-based, rat. On the procedure: (§1) Hippocampal neuron cultures from both male and female rat embryos (E17-18) were prepared following a slightly modified version of the method of Brewer et al. 1996. Hippocampal neurons were kept in culture at 37° C. with 5% CO2 in Neurobasal medium (ThermoFisher) with B27 (ThermoFisher) supplement and Glutamax (ThermoFisher) and plated at a density of 2.5×10^5 cell/ml on dishes coated with poly-D-lysine (ThermoFisher). For the experiments, neurons were used after 14-21 days in vitro (DIV). Rat neuroblastoma B35 cells were cultured and maintained in DMEM (ThermoFisher) supplemented with 10% fetal bovine serum (FBS; Invitrogen) and Glutamax (ThermoFisher).
(§2) Whole frozen mouse hippocampi, human brain specimens, and cultured cells were homogenized in RIPA buffer (ThermoFisher) supplemented with protease and phosphatase inhibitor cocktail (ThermoFisher), using a Teflon dounce homogenizer and centrifuged at 14,000 rpm for 10 minutes at 4° C. Supernatants were collected, normalized by BCA assay (ThermoFisher), and prepared for loading using sample buffer (SB) 4× (ThermoFisher) and dithiothreitol (DTT) 10× (ThermoFisher).
(§3) Cultured primary hippocampal neurons (14 DIV) were treated with 300 nM of a topoisomerase type I inhibitor, topotecan (TOP) or a vehicle control as described in Huang et al. 2012. Some cells were treated for 24 hours and some for 72 hours. All cells were harvested and whole cell lysates prepared for Western blot analysis of Ube3A and Ephixin-5.
In general terms: Immunoblotting shows a protein as a band on a membrane.

In the next data set the test system is Ephexin-5. Briefly: Western blot of Ephexin-5 in cultured primary hippocampal neurons. The class given is cell-based, rat. On the procedure:
as §1, §2, §3

The subject of another data set is RhoA-GTP. The experiment in a line: Rho-GTPase activity pull-down assay in hippocampal neurons. The class given is cell-based, rat. On the procedure:
Rho-GTPase pull-down assays were performed following the manufacturer's protocol (Cytoskeleton, Inc.). Briefly, cells were washed once with ice-cold PBS and lysed with RIPA/M-PER buffer (1:1; ThermoFisher). Lysates were incubated on ice for 5 minutes, and centrifuged (12,000 g) for 5 minutes. 30 μl was used for input and the remaining lysates were incubated with Rhotekin-RBD (RhoA) or PAK-RBD (Rac1) protein beads (25 μl) by rotating for 1 hour at 4° C. Beads were washed with ice-cold PBS (500 μl, 3×) and collected, and bound proteins were eluted with 1× sample buffer (30 μl). Input and eluted samples were then analyzed by gel electrophoresis and Western blotting using either a RhoA or Rac1-specific antibody.
To test whether increasing Ube3A could rescue the effects of oAβ, cultured primary hippocampal neurons (14 DIV) were pretreated with 300 nM of TOP or control PBS. At day 3 the cells were treated with oligomeric Aβ for 6 hours and whole cell lysates prepared for Western blot analysis of Ube3A protein levels and levels of active GTPase levels including RhoA-GTP, Rac1-GTP and Cdc42-GTP.

The subject of data set [1] is primary hippocampal neurons. Briefly: Dendritic spine density in cultured hippocampal neurons (DiOlistic labeling). The conditions noted are these: oAβ for 24 hours. The class given is cell-based, rat. How it is done:
The protocol for diolistic labeling of neurons was adapted from Gan et al. 2000 and Gan et al. 2009. Briefly, 100 mg of tungsten particles (1.1 μm diameter; Bio-Rad) were thoroughly precipitated with 5.0 mg of lipophilic dye (DiI; ThermoFisher) and dissolved in 100 μl of methylene chloride. Dye-coated particles were shot 2-3 times into the cells using the Helios gene gun system (Bio-Rad) and left in 0.1 M PBS overnight to allow dye diffusion along neuronal processes. Cells were post-fixed with 4% paraformaldehyde (Pierce) for 1 hour to preserve staining, then mounted onto glass slides using Gel Mount (Biomeda) and stored at 4° C. in the dark.
Labeled neurons were imaged using the Laser Scanning Microscope (LSM) 510 Meta confocal microscope (Zeiss), equipped with 40×1.3 NA and 100×1.4 NA oil-immersion objectives. The NIH Image software program ImageJ was used the quantify diolistic-labeled cultured neurons. An average of 12 compressed images (20 μm thick) consisting of pyramidal neurons were quantified for each treatment. Spines were counted with NeuronStudio software in a blinded manner and spine density was represented in number of spine per μm dendritic length. Statistical analysis was performed using the statistics package GraphPad Prism.
To further test whether increasing Ube3A could rescue the effects of oAβ, cultured primary hippocampal neurons (14 DIV) were pretreated with 300 nM of TOP or control PBS. The neurons were then treated with oAβ for 24 hours, and whole cell lysates prepared for Western blot analysis, or fixed for microscopy.

A further data set deals with p53. Briefly: Western blot of p53 in hippocampal neurons. The class given is cell-based, rat. The conditions noted are these: Aβ for 8-10 hours. How it is done:
as §2
As observed in the Tg2576 mice hippocampi, the levels of Ube3A inversely correlated with the levels of Arc and Ephexin-5. To determine whether this correlation was also observed in hippocampal neurons, the cells were treated with Aβ for 8-10 hours, and whole cell lysates were collected for Western blot analysis.

The next data set has as its system Ephexin-1. Briefly: Levels or activities of Ephexin-1 in hippocampal neurons. The conditions noted are these: hippocampal neurons treated with oAβ (results not shown). The class given is cell-based, rat.
The test system of another data set is phospho-tau. Briefly: Western blot of phospho-tau in J20 mice. The class given is in vivo. The conditions noted are these: TOP treated J20 mice vs control J20.
Excerpt: All chemicals used were of the highest grade available. Antibodies used include the following: rabbit anti-Ube3A (Cell Signaling), mouse anti-RhoA (Santa Cruz), rabbit anti-Arc (Santa Cruz), mouse anti-GluR1 (Millipore), rabbit anti-Ephexin-5 (Pierce and Abcam), rabbit anti-phospho-c-Abl (Cell Signaling), rabbit anti-GAPDH (Cell Signaling), rabbit anti-HA (Cell Signaling), anti-PSD95 (Cell Signaling), rabbit anti-NMDAR1 (Millipore), and anti-phospho-tau PHF13 (Cell Signaling).
as §2

The conditions of data set [2]: usual marketed dosages, daily for five days or weekly; cited from earlier work.
[3] abbreviates: neurons 21 DIV, oAβ for 24 hours.
Setting [4] is: neurons pretreated with 300 nM TOP, oligomeric Aβ for 6 hours at day 3.

Consider “oAβ: synthetic soluble oligomeric Aβ1-42”, for which the “levels of Ube3A protein” value with Ube3A (setting [3]) was “significant decrease”. For the same compound, the “levels of Ephexin-5 protein” value in the data set on Ephexin-5 (hippocampal neurons, Aβ for 8-10 hours) is given as “significant increase”. For the same compound, the “levels of active RhoA-GTP” value with RhoA-GTP (setting [3]) was “significant increase”. Further, the dendritic spine density result in data set [1] (neurons 21 DIV) is recorded as “significant decrease”. The “levels of p53” value with p53 is on record as “did not show any altered levels”. Further, the “levels or activities of Ephexin-1” value in the data set on Ephexin-1 is on record as “no observation of any differences”.

With `CC[C@@]1(O)C(=O)OCc2c1cc1n(c2=O)Cc2cc3c(CN(C)C)c(O)ccc3nc2-1` [TOP, topotecan], the Ube3A protein levels entry in the data set with Ube3A (neurons 14 DIV, 300 nM TOP, 24 or 72 hours, vs vehicle) was “increased as early as 24 hours and persisted up to three days”. Further, in the data set with Ube3A (setting [4]), the Ube3A protein levels entry is listed as “increased”. Further, in the data set with Ephexin-5 (neurons 14 DIV, 300 nM TOP, vs vehicle), the Ephexin-5 level entry was “significant decrease”. Further, the RhoA activity entry with RhoA-GTP (setting [4]) is on record as “decreased”. Besides, in data set [1] (neurons pretreated with 300 nM TOP), the “protection against oAβ-induced loss of dendritic spine density” value was “complete protection”. Also, the phospho-tau levels result in the data set on phospho-tau is recorded as “decreased”. In addition, in data set [2], the hematologic toxicity result is “reversible manageable” and the nonhematologic toxicity result is reported as “mild”.
